US5561047A, “Method of identifying effectors of integrin activation” (priority 1994, dated 1996)
pEC50, pIC50: −log10 of the molar value. Where two headings read alike, the source gives them in different places.

Tests used:
[1] = molecular target: T1, integrin αIIb β3 (washed human platelets) (Homo sapiens, UniProt P05106+P08514); assay: integrin activation ELISA: biotin-PAC1 binding to intact washed platelets; assay type: cell-based; details: for extent of biotin-PAC1 binding at maximal agonist concentrations: comparison of thrombin, PMA and ADP; for αIIb β3 activation: physiological agonists
T1 construct: endogenous in cells; host or cells: washed human platelets from whole blood of healthy volunteers
Procedure: Platelet incubations were carried out in wells of Falcon flexible polyvinyl chloride (PVC) microtitre plates with 96 U-bottom wells (Becton Dickinson, San Jose, Calif.). ELISA reactions were carried out in 96 well Immulon II polystyrene plates (Dynatech Laboratories, Inc., Chantilly, Va.) that had been precoated with streptavidin. This was accomplished by addition of 75 μl/well of streptavidin (1.25 μg/ml) for 16 hours at 4°, followed by washing four times with 200 μl of 1% TWEEN(polyethylenesorbit -20 in phosphate-buffered saline (PBS), pH 7.4, blocking with 200 μl of 1% bovine serum albumin in PBS for 2 hours at room temperature, and washing again. These plates could be stored at -20° for at least 3 months prior to use in the assay.
(§1) Whole blood was obtained from healthy, drug-free volunteers and anticoagulated with a 1:6 volume of acid-citrate-dextrose formula A. Platelet-rich plasma was collected by centrifugation at 180×g for 20 minutes, incubated for 5 minutes with 1 μM prostaglandin E1 and 1 unit/ml apyrase, then sedimented at 500×g for 10 minutes and resuspended in 5 ml of 2 wash buffer containing 20 mM HEPES, 0.15 M NaCl, 0.1% glucose, 1 μM prostaglandin E1, 1 unit/ml apyrase, and 1.5 mM EDTA, pH 7.4. After another centrifugation at 500×g for 20 minutes, the platelets were finally resuspended to 5.8×10^8 /ml in an incubation buffer containing 137 mM NaCl, 2.7 mM KCl, 1.0 mM MgCl2, 3.3 mM NaH2 PO4, 0.1% glucose, 0.1% bovine serum albumin, and 20 mM HEPES, pH 7.35.
Fifty-five μl of washed platelets were added in triplicate to wells of PVC plates containing 10 μl of the desired agonist (or the activation inhibitor, PGI2) and 25 μl of the desired inhibitory test compound (or the equivalent vehicle as a diluent). After 10 minutes at 37° without shaking, 10 μl of biotin-PAC1 were added to achieve a final antibody concentration of 0.5 μg/ml and a platelet concentration of 3.2×10^8 /ml. After a further 15 minutes incubation at room temperature without shaking, the microtitre plates were centrifuged at 2800 rpm for 10 minutes to sediment the platelets, conditions under which essentially all of the platelets were removed from the supernatant.
After platelet centrifugation, 50 μl of supernatant from each well were transferred to corresponding wells of streptavidin-coated plates and incubated for 30 minutes at room temperature. Each well was then washed four times with 200 μl of PBS/Tween, followed by addition of 50 μl of goat anti-mouse IgM-horseradish peroxidase conjugate (1:1500). After incubation for 60 minutes at room temperature, the plates were again washed four times with PBS/Tween, followed by addition of 50 μl of a reaction mixture containing 1 mg/ml o-phenylenediamine dihydrochloride and 0.012% H2 O2 in 0.1 M citrate buffer, pH 4.5. After a final 20 minutes at room temperature, reactions were stopped with 25 μl of 4 N HCl, and formation of the reaction product was measured at 490 nm in a THERMOmax microplate reader (Molecular Devices, Inc.)
Triplicate aliquots of washed human platelets were incubated in microtitre wells at a final volume of 90 μl in the presence of a platelet agohist such as PMA or thrombin, in order to convert αIIb β3 into a high affinity, ligand-competent state. Compounds that were being tested for their ability to inhibit αIIb β3 were also added to some of the wells at this stage. Other wells contain PGI2 (0.2 μM), a potent platelet activation inhibitor, to purposely maintain αIIb β3 in a low-affinity state. After 10 minutes at 37°, 10 μl of a subsaturating and limiting concentration of biotin-PAC1 was added to each well and the incubation was continued for an additional 15 minutes at room temperature.
The microtitre plates were then centrifuged at 2800 rpm for 10 minutes in order to sediment the platelets. […] In contrast, platelets in wells containing an agonist have bound biotinPAC1. […]

[2] = test system: platelet aggregation and secretion; details: Sless, Physiol. Rev. 1989; cited from earlier work
[3] = test system: "internal" pool of activated αIIb β3; details: unstirred platelets; Woods et al. 1986; cited from earlier work
[4] = test system: integrin αIIb β3 (washed platelets); assay: flow cytometry of FITC-PAC1 binding to washed platelets; assay type: cell-based, human; details: washed platelets stimulated for 15 minutes with 0.2 mM phorbol myristate acetate; representative experiment
Procedure: as §1
Assay variables in each step of the assay were examined systematically. […] Flow cytometry was used to assess the activation state of the platelets using FITC-PAC1 as the activation marker (Shattil et al., Blood 1987, 70, 307). No activation of washed platelets was detected. In a representative experiment, mean FITC-PAC1 binding to washed platelets was 22 arbitrary fluorescence units, a value identical to that obtained with platelets in whole blood or in platelet-rich plasma. FITC-PAC1 binding to washed platelets that had been stimulated for 15 minutes with 0.2 mM phorbol myristate acetate amounted to 1,776 fluorescence units.

αIIb β3 = details: PMA 0.2 μM; Shattil et al., Blood 1987; cited from earlier work
protein kinase C = details: Toullec et al. 1991; cited from earlier work

T1 sequence (P08514 32-887 limits assumed): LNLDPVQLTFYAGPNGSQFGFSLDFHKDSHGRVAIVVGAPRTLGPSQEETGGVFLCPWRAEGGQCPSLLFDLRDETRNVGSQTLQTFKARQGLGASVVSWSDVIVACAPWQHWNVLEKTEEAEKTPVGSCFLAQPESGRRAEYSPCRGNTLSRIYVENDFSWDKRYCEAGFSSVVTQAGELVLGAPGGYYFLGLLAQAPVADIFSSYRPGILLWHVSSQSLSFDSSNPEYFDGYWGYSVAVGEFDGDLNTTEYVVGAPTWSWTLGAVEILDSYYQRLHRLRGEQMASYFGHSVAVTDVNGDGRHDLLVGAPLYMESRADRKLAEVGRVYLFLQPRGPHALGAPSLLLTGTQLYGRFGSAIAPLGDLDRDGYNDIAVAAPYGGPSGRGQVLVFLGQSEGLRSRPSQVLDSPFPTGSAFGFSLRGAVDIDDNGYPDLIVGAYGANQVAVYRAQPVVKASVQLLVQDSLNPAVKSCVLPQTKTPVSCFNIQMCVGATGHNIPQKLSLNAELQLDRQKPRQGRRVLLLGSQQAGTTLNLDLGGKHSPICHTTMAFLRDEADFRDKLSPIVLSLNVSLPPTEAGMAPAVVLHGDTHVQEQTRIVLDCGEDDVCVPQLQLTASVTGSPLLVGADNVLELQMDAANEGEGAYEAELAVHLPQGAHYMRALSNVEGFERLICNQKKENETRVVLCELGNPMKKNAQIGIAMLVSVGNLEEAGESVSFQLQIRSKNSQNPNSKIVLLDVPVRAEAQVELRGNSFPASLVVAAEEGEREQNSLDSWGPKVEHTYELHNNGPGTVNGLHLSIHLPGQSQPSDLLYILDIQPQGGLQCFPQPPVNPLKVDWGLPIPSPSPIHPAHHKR
T1 sequence (P08514 891-1039 limits assumed): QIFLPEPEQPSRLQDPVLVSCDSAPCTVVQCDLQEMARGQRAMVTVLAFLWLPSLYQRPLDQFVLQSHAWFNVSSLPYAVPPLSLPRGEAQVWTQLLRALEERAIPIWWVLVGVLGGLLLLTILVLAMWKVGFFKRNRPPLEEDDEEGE
T1 sequence (P05106 27-788): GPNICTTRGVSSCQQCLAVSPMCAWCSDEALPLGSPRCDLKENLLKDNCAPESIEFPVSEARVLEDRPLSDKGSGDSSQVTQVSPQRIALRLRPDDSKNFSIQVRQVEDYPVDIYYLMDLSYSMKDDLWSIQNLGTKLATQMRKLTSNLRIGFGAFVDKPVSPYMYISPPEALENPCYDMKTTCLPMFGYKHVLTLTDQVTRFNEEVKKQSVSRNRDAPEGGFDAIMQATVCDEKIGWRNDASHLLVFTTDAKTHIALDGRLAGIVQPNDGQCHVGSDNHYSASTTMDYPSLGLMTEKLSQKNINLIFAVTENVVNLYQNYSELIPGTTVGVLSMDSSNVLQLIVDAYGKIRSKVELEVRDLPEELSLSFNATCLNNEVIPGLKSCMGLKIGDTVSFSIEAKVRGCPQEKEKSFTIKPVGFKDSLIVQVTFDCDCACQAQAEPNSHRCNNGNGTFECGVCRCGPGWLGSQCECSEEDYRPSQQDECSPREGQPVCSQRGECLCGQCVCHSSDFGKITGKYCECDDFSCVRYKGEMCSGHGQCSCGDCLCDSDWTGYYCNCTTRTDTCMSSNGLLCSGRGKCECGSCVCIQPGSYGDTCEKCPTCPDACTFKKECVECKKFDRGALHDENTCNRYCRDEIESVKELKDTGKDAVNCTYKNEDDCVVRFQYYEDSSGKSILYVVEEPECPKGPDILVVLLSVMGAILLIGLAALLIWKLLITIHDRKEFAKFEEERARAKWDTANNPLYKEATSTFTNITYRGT

Question: With `Nc1ncnc2c1ncn2[C@@H]1O[C@H](COP(=O)(O)OP(=O)(O)O)[C@@H](O)[C@H]1O` [ADP] as the compound, how does the pEC50 [1] read?
Answer: The pEC50 was ~6.00.

Question: What about the “concentration of maximal αIIb β3 activation” value ([1]; ADP) of the same compound?
Answer: The value was 10 µM.

Question: And the “extent of biotin-PAC1 binding at maximal agonist concentrations” value [1]?
Answer: The value was “less”.

Question: And the “αIIb β3 activation” value [1]?
Answer: Its value is “caused αIIb β3 activation in a dose-dependent manner”.

Question: Which “inhibition of biotin-PAC1 binding to activated platelets” value ([1]; activated platelets) does the source give for RGDS here?
Answer: The value was “inhibited in a dose-dependent manner”.

Question: With RGES as the compound, how does the “inhibition of biotin-PAC1 binding to activated platelets” value ([1]; activated platelets) read?
Answer: Its value is “ineffective”.

Question: For `O=CC[C@@H](O)[C@H](O)[C@H](O)CO` [2-Deoxyglucose], which “inhibition of platelet aggregation and secretion” value [2] is on record?
Answer: The value was “block both platelet aggregation and secretion”.

Question: For thrombin, which “extent of biotin-PAC1 binding at maximal agonist concentrations” value [1] is on record?
Answer: Its value is “similar”.

Question: What about the “αIIb β3 activation” value [1] of the same compound?
Answer: Its value is “caused αIIb β3 activation in a dose-dependent manner”.

Question: And the “concentration of maximal αIIb β3 activation” value ([1]; thrombin)?
Answer: The value was 0.1 U/ml.

Question: What about the “stimulation of surface expression of an internal pool of activated αIIb β3” value [3] of the same compound?
Answer: Its value is “stimulate the surface expression”.

Question: For `CCCCC[C@H](O)/C=C/[C@@H]1[C@H]2C/C(=C/CCCC(=O)O)O[C@H]2C[C@H]1O` [PGI2, prostaglandin I2], which “biotin-PAC1 bound to platelets in wells containing PGI2” value ([1]; PGI2 0.2 μM) is on record?
Answer: The value was “do not have bound biotin-PAC1”.

Question: What about the “depletion of PAC1 from supernatant” value ([1]; PGI2-treated, unactivated platelets, any platelet concentration) of the same compound?
Answer: The value was “No depletion of PAC1 was observed”.

Question: What does the source list for `CCCCCCCCCCCCCC(=O)O[C@@H]1[C@@H](C)[C@@]2(O)[C@@H](C=C(CO)C[C@]3(O)C(=O)C(C)=C[C@@H]23)[C@@H]2C(C)(C)[C@]12OC(C)=O` [PMA, phorbol myristate acetate]?
Answer: mean FITC-PAC1 binding [4]: 1,776 fluorescence units; activation of αIIb β3 in the integrin activation ELISA ([1]; PMA 0.2 μM): maximal activation of αIIb β3; amount of biotin-PAC1 remaining in supernatant ([1]; PMA 0.2 μM, 0.5 μg/ml biotin-PAC1, increasing number of activated platelets): decreased as the number of activated platelets in the well increased; extent of biotin-PAC1 binding at maximal agonist concentrations [1]: similar; stimulation of surface expression of an internal pool of activated αIIb β3 [3]: stimulate the surface expression; activation of αIIb β3 in conventional assays (αIIb β3): maximal activation of αIIb β3

Question: What does the source list for bisindolylmaleimide?
Answer: concentration of complete inhibition of biotin-PAC1 binding ([1]; PMA-stimulated platelets): 20 µM; pIC50 ([1]; PMA-stimulated platelets, read-out: IC50, inhibition of biotin-PAC1 binding): ~6.00; concentration maximally effective on protein kinase C in platelets (protein kinase C): 10 to 20 µM

Question: Which “inhibition of platelet aggregation and secretion” value [2] does the source give for antimycin A here?
Answer: Its value is “block both platelet aggregation and secretion”.

Question: With fibrinogen as the compound, how does the pIC50 ([1]; activated platelets, read-out: IC50, inhibition of biotin-PAC1 binding to activated platelets) read?
Answer: Its pIC50 is 6.40.
